Data: patent US20200009163A1, “POLYPHOSPHATES AS INHIBITORS OF CALCIUM CRYSTALLIZATION” (priority 2017, published 2020)

Tests used:
[1] = ISE (ion selective electrode) measurement of inhibition of COM crystallization from aqueous solution; settings: FIG. 3
Text: FIG. 3 depicts experimental results obtained using an example of a LTPP compound (Na5P3O10) and an example of a HMP compound ((NaPO3)6) to inhibit crystallization of […] from aqueous solution. Results for a citrate compound (Na3C6H5O7), which is commonly used in the treatment of kidney stones, is presented for purposes of comparison. In FIG. 3, the x-axis represents a measure of concentration (micromolar (μM) concentration on a logarithmic scale) of the inhibitor present in the solution. The y-axis represents percent inhibition (% reduction in the rate of crystallization) of COM crystallization as compared to a control solution having no inhibitor compounds therein. The effect of the inhibitors on COM growth was estimated using ISE (ion selective electrode) measurements. This measurement technique enables quantification of the extent of inhibition on calcium crystal growth as a function of inhibitor concentration. More specifically, ISE measures free calcium concentration in solution as a function of time to measure the rate of crystallization in the absence and presence of inhibitor. This technique can be used to measure the effectiveness of the polyphosphates and polyphosphate derivatives at inhibiting or modifying calcium crystal growth. The values of “% inhibition” that were obtained by this technique, and presented in FIG. 3 for the different combinations of inhibitor type and concentration, reflect rates of crystallization that have been normalized with respect to the rate of crystallization for a control solution (e.g., inhibitor concentration of zero). The % inhibition refers to the averages of at least 3 separate experiments. The solutions tested were aqueous solutions of calcium chloride (CaCl2)), sodium oxalate (Na2C2O4), and sodium chloride (NaCl). The tested solutions further included the inhibitor/modifier compound at the stated concentration level.

[2] = Bulk calcium oxalate crystallization, optical microscope images and crystal frequency; settings: for calcium oxalate crystals observed (optical microscope): control crystals approximately 25-50 μm along c-axis
Procedure: (§1) FIG. 4A depicts optical microscope images showing results of calcium oxalate crystallization from a control solution and solutions including LTPP Na5P3O10 at concentrations of 5 μM and 15 μM. FIG. 4B depicts effects of Na5P3O10 concentrations on calcium oxalate crystal frequency. […] Crystals formed from the control solution were approximately 25-50 μm in size as measured along the c-axis, which is the longest dimension.
as §1, with “FIG. 5A” for “FIG. 4A”, “including HMP (NaPO3)6” for “including LTPP Na5P3O10”, “of 0.3” for “of 5”, “and 0.7” for “and 15”, “FIG. 5B” for “FIG. 4B”, “of (NaPO3)6” for “of Na5P3O10”
FIG. 6 depicts optical microscope images showing results of calcium oxalate crystallization during bulk studies at different concentrations of LTPP. The leftmost image is a representative control crystal.

Na5P3O10 [LTPP]
percent inhibition (% reduction in the rate of crystallization) of COM crystallization ([1]; inhibitor concentration range of about 5 μM to about 125 μM, vs control solution without inhibitor): 30-100%
crystal morphology (habit) of calcium oxalate crystals ([2]; 5 μM and 15 μM inhibitor vs control crystal, FIG. 6): morphology of the crystals change with increasing inhibitor concentration
calcium oxalate crystals observed (optical microscope) ([2]; 15 μM inhibitor, FIG. 4A): very small crystals
calcium oxalate crystal frequency ([2]; higher LTPP solution concentrations (above 15 μM), FIG. 4B): no definitive crystals being observed

O=C(O)CC(O)(CC(=O)O)C(=O)O [citrate, Na3C6H5O7, reference compound]
percent inhibition (% reduction in the rate of crystallization) of COM crystallization ([1]; inhibitor concentration of around 320 μM, maximum reached even at much higher concentrations): about 60%

(NaPO3)6 [HMP]
percent inhibition (% reduction in the rate of crystallization) of COM crystallization ([1]; inhibitor concentration of less than about 1 μM, vs control solution without inhibitor): approximately 100%
calcium oxalate crystals observed (optical microscope) ([2]; 0.7 μM inhibitor, FIG. 5A): Very small crystals
calcium oxalate crystal frequency ([2]; higher HMP solution concentrations (above 0.7 μM), FIG. 5B): no definitive crystals being observed
